Measured values: patent US11345698B2, “Substituted imidazo[1,2-a]pyridines, substituted imidazo[1,2-a]pyrazines, related compounds, and their use in the treatment of medical disorders” (Bial—R&D Investments, S.A., priority 2016, dated 2022)
≈ marks a conversion by molar mass, not a printed value.

Assays:
[1] = Compound solubility in water
[2] = target: T1, glucocerebrosidase (Gcase) (Homo sapiens, UniProt P04062); test: Glucocerebrosidase (Gcase) activation assay, 4-methylumbelliferyl-beta-D-glucopyranoside substrate, with saposin C; format: biochemical; details: 10 nM GCase, 100 nM saposin C, pH 4.7; for activation at 0.1 µM: read-out: Percent Gcase Activation, 0.1 μM Test Compound; for activation at 1 µM: read-out: Percent Gcase Activation, 1 μM Test Compound
T1 sequence (P04062 40-536): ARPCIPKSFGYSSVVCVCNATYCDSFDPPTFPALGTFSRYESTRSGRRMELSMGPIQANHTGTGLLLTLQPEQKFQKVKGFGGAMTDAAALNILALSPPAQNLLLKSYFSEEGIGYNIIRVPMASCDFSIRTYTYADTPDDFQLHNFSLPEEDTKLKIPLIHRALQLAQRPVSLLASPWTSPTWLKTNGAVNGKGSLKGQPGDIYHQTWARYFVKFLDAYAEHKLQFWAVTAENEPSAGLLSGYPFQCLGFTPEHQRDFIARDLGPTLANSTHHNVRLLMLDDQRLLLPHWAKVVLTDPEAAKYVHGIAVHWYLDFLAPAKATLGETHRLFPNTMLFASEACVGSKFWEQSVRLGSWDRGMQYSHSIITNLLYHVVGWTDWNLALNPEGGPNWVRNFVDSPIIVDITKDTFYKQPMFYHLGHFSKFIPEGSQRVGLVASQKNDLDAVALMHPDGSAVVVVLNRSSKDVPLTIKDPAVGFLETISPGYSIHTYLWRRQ
Experimental: A 484 μL aliquot of a 1.0 mg/mL solution of phosphatidylserine (PS) (Sigma P7769) in chloroform was evaporated under a stream of nitrogen for 1 hour. The lipid film was dissolved over 4 minutes of vigorous vortexing in 40 mL of 176 mM K2HPO4/50 mM citric acid (pH 4.7) containing 7.5 μL of triton X-100, resulting in a mixed micellar preparation with a composition of 0.32 mM triton and 0.37 mol % PS. 4-Methylumbelliferyl-beta-D-glucopyranoside (ACROS-337025000) was dissolved in the micellar solution to a final concentration of 2 mM for use as the reaction substrate.
Test compounds were diluted to the desired concentrations with dimethylsulfoxide (DMSO) from 10 mM stocks, and 0.41 μL of the DMSO compound mixture was added to 100 μL of micellar solution containing 10 nM GCase and 100 nM saposin C (Enzo ALX-201-262-C050). Pre-incubation was allowed to occur for 30 minutes at room temperature, after which the reaction was initiated by combining 25 μL of substrate solution with 25 μL of compound/GCase/saposin mixture. The reaction proceeded for 15 minutes at room temperature and was stopped by adding 150 μL of 1M glycine, pH 12.5. The endpoint of the reaction was monitored by measuring fluorescence intensity (excitation: 365 nm; emission: 440 nm) on a SpectraMax i3 instrument (Molecular Devices). […]

Row | Compound | solubility [1] | activation at 0.1 µM ([2]; 0.1 μM test compound) | activation at 1 µM ([2]; 1 μM test compound) | Percent Gcase Activation, 0.1 μM Test Compound ([2]; 0.1 μM test compound) | Percent Gcase Activation, 1 μM Test Compound ([2]; 1 μM test compound)
1 | CCCCCO[C@H]1CC[C@H](NC(=O)c2ccc(C)n3ccnc23)CC1 [5-Methyl-N-((1S,4S)-4-(pentyloxy)cyclohexyl) imidazo[1,2-a]pyridine-8-carboxamide] | 14.2 µg/mL (≈ 41.3 µM) | 5 to 20% | > 20% | – | –
2 | CCC(NC(=O)c1ccc(C)n2ccnc12)c1ccccc1 (stereo not drawn) [5-Methyl-N-(1-phenylpropyl)imidazo[1,2-a]pyridine-8-carboxamide] | 6.2 µg/mL (≈ 21.1 µM) | 5 to 20% | > 20% | – | –
3 | Cc1ccc(C(=O)NC(C)(C)C2CC2)c2nccn12 [N-(2-Cyclopropylpropan-2-yl)-5-methylimidazo[1,2-a]pyridine-8-carboxamide] | – | < 5% | > 20% | – | –
4 | N-(4-Ethynylphenyl)-5-methylimidazo[1,2-a]pyrazine-8-carboxamide | – | – | – | ++ (Gcase activation in the range of 5% up to 20%) | +++ (Gcase activation greater than 20%)
5 | Cc1ccc(C(=O)NC(C2CC2)C(F)(F)F)c2nccn12 (stereo not drawn) [N-(1-Cyclopropyl-2,2,2-trifluoroethyl)-5-methylimidazo[1,2-a]pyridine-8-carboxamide] | 9.9 µg/mL (≈ 33.3 µM) | 5 to 20% | > 20% | – | –
6 | CCCCCO[C@H]1CC[C@H](NC(=O)c2cccc3oc(C)nc23)CC1 [2-Methyl-N-((1R,4R)-4-(pentyloxy)cyclohexyl)benzo[d]oxazole-4-carboxamide] | 1.6 µg/mL (≈ 4.65 µM) | < 5% | < 5% | – | –
7 | Cc1cn2ccnc(C(=O)NC3CCCc4ccccc43)c2n1 (stereo not drawn) [2-Methyl-N-(1,2,3,4-tetrahydronaphthalen-1-yl)imidazo[1,2-a]pyrazine-8-carboxamide] | 7.7 µg/mL (≈ 25.1 µM) | < 5% | < 5% | – | –
8 | Cc1ccc(C(=O)NC2CCCc3ccccc32)c2nccn12 (stereo not drawn) [5-Methyl-N-(1,2,3,4-tetrahydronaphthalen-1-yl)imidazo[1,2-a]pyridine-8-carboxamide] | 0.2 µg/mL (≈ 0.655 µM) | 5 to 20% | > 20% | – | –
9 | Cc1cn2ccnc(C(=O)Nc3ccc4c(c3)CCC4)c2n1 [N-(2,3-Dihydro-1H-inden-5-yl)-2-methylimidazo[1,2-al]pyrazine-8-carboxamide] | 1 µg/mL (≈ 3.42 µM) | < 5% | 5 to 20% | – | –
10 | Cc1nc2c(C(=O)NC3CCCc4ccccc43)cccc2o1 (stereo not drawn) [2-Methyl-N-(1,2,3,4-tetrahydronaphthalen-1-yl)benzo[d]oxazole-4-carboxamide] | 1.5 µg/mL (≈ 4.9 µM) | < 5% | > 20% | – | –
11 | Cc1nc2c(C(=O)Nc3ccc4c(c3)CCC4)cccc2o1 [N-(2,3-Dihydro-1H-inden-5-yl)-2-methylbenzo[d]oxazole-4-carboxamide] | 0.3 µg/mL (≈ 1.03 µM) | < 5% | 5 to 20% | – | –
12 | C#Cc1ccc(NC(=O)c2nccn3cc(C)nc23)cc1 [N-(4-Ethynlphenyl)-2-methylimidazo[1,2-a]pyrazine-8-carboxamide] | 0.8 µg/mL (≈ 2.9 µM) | < 5% | 5 to 20% | – | –
13 | CCC(NC(=O)c1nccn2cc(C)nc12)c1ccccc1 (stereo not drawn) [2-Methyl-N-(1-phenylpropyl)imidazo[1,2-a]pyrazine-8-carboxamide] | 10.9 µg/mL (≈ 37.1 µM) | < 5% | < 5% | – | –
14 | Cc1ccc(C(=O)Nc2ccc3c(c2)CCC3)c2nccn12 [N-(2,3-Dihydro-1H-inden-5-yl)-5-methylimidazo[1,2-a]pyridine-8-carboxamide] | 0.4 µg/mL (≈ 1.37 µM) | < 5% | > 20% | – | –
15 | CCCCCO[C@H]1CC[C@H](NC(=O)c2nccn3cc(C)nc23)CC1 [2-Methyl-N—((R 4R)-4-(pentyloxy)cyclohexyl)imidazo[1,2-a]pyrazine-8-carboxamide] | 8.4 µg/mL (≈ 24.4 µM) | < 5% | < 5% | – | –
16 | Cc1ccc(C(=O)N[C@@H](C)C2CC2)c2nccn12 [(S)—N-(1-Cyclopropylethyl)-5-methylimidazo[1,2-a]pyridine-8-carboxamide] | – | < 5% | 5 to 20% | – | –
17 | CCC(NC(=O)c1cccc2oc(C)nc12)c1ccccc1 (stereo not drawn) [2-Methyl-N-(1-phenylpropyl)benzo[d]oxazole-4-carboxamide] | 13.2 µg/mL (≈ 44.7 µM) | < 5% | 5 to 20% | – | –
